Bridges are numbered along the chain shown (N, C = ends). Where no end group is shown, it is not given here.
Legend:
[1] = system: artificial blood vessels produced from 201B7 cells (iPS cells derived from healthy subjects); assay: Contraction of artificial blood vessels produced from 201B7 iPS cells in response to physiologically active substances; format: cell-based, human; conditions: for contraction rate after perfusion culture: 201B7 co-culture, immediately after start of perfusion culture vs third day of perfusion, FIG. 8B; for contraction reaction: artificial blood vessel of smooth muscle cells alone (201B7 vSMC) compared with 201B7 co-culture with endothelial cells, FIG. 8A; for concentration dependence of contraction rate: iPS cells derived from healthy subjects, U46619 0.05 nM to 0.5 nM, endothelin-1 100 nM to 1000 nM, n=5, FIG. 8C; for contraction reaction (same as with U46619): artificial blood vessels produced from 201B7 cells, physiological vasoconstrictors
Procedure: Next, it was analyzed whether the produced tissue engineered tube reproduces physiological reactions such as contraction and expansion with respect to a physiologically active substance. First, regarding artificial blood vessels produced from 201B7 cells, an artificial blood vessel of only smooth muscle cells (201B7 vSMC) and an artificial blood vessel obtained by seeding and co-culturing blood vessel endothelial cells induced to differentiate from 201B7 in an artificial blood vessel lumen (201B7 co-culture) were produced, and the contraction reaction due to U46619 and KCl was analyzed (FIG. 8A). U46619 is a stable synthetic analog of prostaglandin PGH2 and has an action of inducing blood vessel contraction as a thromboxane A2 receptor agonist. KCl is known to induce blood vessel contraction by membrane potential change. Since an individual difference may occur under a normal contraction amount, U46619 relative is a normalized value obtained by dividing the contraction amount when U46619 is applied by the contraction amount when KCl is applied, which indicates the maximum contraction force. […] NO is a vasodilator and is known to be released from blood vessel endothelial cells. Therefore, it is recognized that the produced artificial blood vessel reproduces the physiological mechanism. […] In the following experiments, artificial blood vessels co-cultured with endothelial cells were used unless otherwise specified.
In order to maintain a more physiological environment, perfusion culture was performed to examine whether the contraction rate was improved (FIG. 8B). Immediately after the start of perfusion culture, U46649 or KCl was applied to an artificial blood vessel produced from 201B7 cells (201B7 co-culture) on the third day of perfusion to analyze the contraction rate. […] It is known that blood vessel tissues change in phenotype, orientation, and the like and mature due to shear stress and blood pressure caused by perfusion culture.
It was analyzed whether the contraction of the artificial blood vessel with respect to U46619 and endothelin-1 depended on the concentration. Artificial blood vessels were produced using iPS cells derived from healthy subjects, and the contraction rates were measured while changing the concentrations of U46619 (0.05 nM to 0.5 nM) and endothelin-1 (100 nM to 1000 nM) (n=5). […] Therefore, it is recognized that the produced artificial blood vessels has have physiological properties.

[2] = system: artificial blood vessels produced from iPS cells derived from Werner syndrome patients (WS2-C5 co-culture); assay: Contraction of artificial blood vessels produced from Werner syndrome patient iPS cells compared with those from healthy subjects; format: cell-based, human; conditions: for contraction against stimulation, WS2-C5 co-culture vs 201B7 co-culture: n=4, FIG. 9A; for relative contraction rate, Werner derived vs WT derived iPSC blood vessels: 200 nM U46619 or 100 nM angiotensin II, contraction amount with 100 mM KCl as 100%, FIG. 9B
Procedure: Next, reactions to U46619 and KCl were analyzed using artificial blood vessels produced from Werner syndrome patients iPS (FIG. 9A). iPS cells derived from healthy subjects and Werner syndrome patients were induced to differentiate into smooth muscle cells and blood vessel endothelial cells to produce artificial blood vessels as described above, and contraction with respect to U46619 and KCl was analyzed.
In addition to U46619, the relative contraction rate was also determined for angiotensin II (FIG. 9B). The artificial blood vessel was contracted by 200 nM U46619 or 100 nM angiotensin II, and the relative contraction rate was calculated with the contraction amount when 100 mM KCl was applied as 100%. […] Hereinafter, the artificial blood vessels produced using iPS cells derived from healthy subjects may be referred to as WT derived iPSC blood vessels, and the artificial blood vessels produced using iPS cells derived from Werner syndrome patients may be referred to as Werner derived iPSC blood vessels.
Artificial blood vessels were produced from iPS cells derived from healthy subjects and Werner syndrome patients and subjected to perfusion culture, and the contraction by U46619 was analyzed (FIG. 9C). […] This is considered to be caused by a decrease in NO production ability of blood vessel endothelial cells derived from iPS cells of Werner syndrome patients.

Compound	contraction rate after perfusion culture [1]	contraction reaction [1]	contraction against stimulation, WS2-C5 co-culture vs 201B7 co-culture [2]	concentration dependence of contraction rate [1]	relative contraction rate, Werner derived vs WT derived iPSC blood vessels [2]	contraction after perfusion culture, Werner derived vs WT derived iPSC blood vessels ([2]; perfusion culture, FIG. 9C)	contraction reaction (same as with U46619) [1]
[Cl-].[K+] [KCl]	an improvement in contraction rate due to perfusion culture was observed	high contraction was observed	tended to contract more strongly				
CCCCC[C@H](O)/C=C/[C@@H]1[C@@H](C/C=C\CCCC(=O)O)[C@H]2CO[C@@H]1C2 [U46619]	an improvement in contraction rate due to perfusion culture was observed	high contraction was observed	tended to contract more strongly	contracted in a concentration-dependent manner	exhibited stronger contraction force	an increase in contraction force was observed	
angiotensin II (DRVYIHPF; Angiotensin-2; UniProt P01019 25-32, looked up) [physiological vasoconstrictor]					exhibited stronger contraction force		the same contraction reaction occurs
endothelin-1 (CSCSSLMDKECVYFCHLDIIW; disulfide 1-15, 3-11; ends not checked; UniProt P05305 53-73, looked up) [physiological vasoconstrictor]				contracted in a concentration-dependent manner			the same contraction reaction occurs
